In brackets after ≈: the same amount, converted by molar mass. Where two headings read alike, the source gives them in different places. Values belong to the compound of their own block, whether it stands above or below them.
How the values were obtained:
HSV-2, strain MS = test: Prophylactic guinea pig model of HSV infection; format: in vivo; details: 60 mg/kg s.c. (test compounds) T.I.D., 10 days, first dose 24 h before infection; for MSL (Maximum Lesion score): scale of 1-4
Description: The in vivo assessment of anti-HSV efficacy was determined in the prophylactic guinea pig model of HSV infection described by Stansberry et al (1982). Dosing of guinea pigs comprised an initial treatment with test compound given 24 hours prior to virus infection and subsequent administration of the compound every eight hours (T.I.D.) for a total of 10 days. Test compounds were administered subcutaneously in 0.5% buffered methyl celluslose at a dose of 60 mg per kg body weight of the animal. Animals were monitored daily for the development of genital lesions and neurological symptomology, both of which were recorded and compared to the results obtained with parallel groups which received placebo or acyclovir treatment. Efficacy was evaluated for each compound by scoring the ability of the compound to ameliorate genital lesions produced by infection with HSV-2, strain MS, expressed as Maximum Lesion Scores (MLS) on a scale of 1 (least lesions) to 4 (severe lesions).

[1] = Blood pressure in conscious spontaneously hypertensive rats (SHR); format: in vivo
Description: The ability of the compounds to lower blood pressure can be assessed in vivo in conscious spontaneously hypertensive rats (SHR). SHR are purchased from Taconic Farms, Germantown, N.Y. and are approximately 16-18 weeks old when anesthetized with ether. The caudal ventral tail) artery is cannulated with polyethylene tubing (PE50) and blood pressure and heart rate are recorded as described by Baum, T. et. al, J. Cardiovasc. Pharmacol. Vol 5, pp. 665-667, (1983). Rats are placed into pastic cylindrical cages where they rapidly recover consciousness. Blood pressure and heart rate are allowed to stabilize for approximately 90 minutes prior to compound administration. Compounds are administered orally as solutions or suspensions in 0.4% aqueous methylcellulose vehicle via a feeding needle. The compound or 0.4% aqueous methylcellulose vehicle are given in a volume of 4 ml/kg to SHRs that had been fasted overnight. Alternatively,compounds are administered intravenously. The compound is solubilized with a minimum amount of an organic solvent such as ethanol or dimethylsulfoxide and given in physiological saline. Activity is expressed as the fall in mean blood pressure (MBP) in millimeters of mercury (mm Hg). Compound-induced changes are compared with the changes in an appropriate placebo group.

HSV-2 (strain MS) = test: HSV-β-Gal assay: transient expression of beta galactosidase in transfected HeLa cells superinfected with HSV-2; format: cell-based; details: 24 h
Description: (§1) HeLa and Vero cell cultures were maintained in Eagles Minimal Essential Medium (EMEM) which was supplemented with glutamine, penicillin, streptomycin and 10% fetal calf serum (10% EMEM). Stock cultures of HSV-2 (strain MS available from ATCC VR-540) were grown in and harvested from Vero cells. Viral stocks were titered in Vero cells according to established procedures.
Plasmid pON 245^ori- contains the promoter of the HSV-1 thymidine kinase (tk) gene located immediately 5'of the E. coli lac Z gene. In this arrangement, the tk promoter controls transcription from the bacterial gene in transient expression assays. Additionally, an SV40 polyadenylation signal is present at the 3' end of the lac Z gene to allow for the efficient translation of the mRNA in eucaryotic cells. The expression of beta galactosidase in a transient assay using pON 245^ori- is dependent upon superinfection of the transfected cells with HSV. […] For example see U.S. application Ser. No. 07/435,491 filed Sep. 5, 1989, the disclosure of which is incorporated herein by reference thereto.
HeLa cells were seeded into 96 well microtiter plates and allowed to grow to 80% confluency (approximately 35000 cells/well). One half microgram of plasmid pON 245^ori- DNA was introduced into the cells of each well by the […] precipitation technique (Grahman and Van der Eb, 1973). Four to six hours later, the cells were rinsed with hank's Balanced Salt Solution (HBSS), overlaid with 10% EMEM and incubated at 37° C. At 24 hours post-transfection, cells were rinsed, overlaid with 10% EMEM again and re-incubated at 37° C. At 48 hours post-transfection, cells were rinsed and overlaid with either EMEM containing 2% fetal calf serum (2% EMEM), 2% EMEM containing HSV-2 (strain MS, Multiplicity of Infection [moi]=5 pfu/cell) or 2% EMEM containing HSV-2 and the appropriate concentration of Schering compound to be tested. Twenty-four hours later, the cells were harvested and assayed for beta galactosidase activity as described below.
All determinations of beta galactosidase activity were performed in 96 well microtiter plates. The intracellular level of beta galactosidase activity in each well was determined from cell lysates of the monolayer cultures. Aliquots were assayed by incubation in the presence of beta galactosidase substrate, 4-methylumbelliferyl-β-D-galactoside (MUG, 125 ug/ml, Sigma), for 2 hours. The generation of fluorescent product was quantified on a Microfluor microfluorimeter (Dynatech) after addition of 0.1M glycine, pH 10.3 (Spaete and Mocarski, 1985). The inhibitory activity of a compound was plotted versus the concentration and an IC50 value (the concentration of compound required to reduce beta glactosidase expression by 50%) was obtained for each compound tested.

[2] = target: T1, cGMP phosphodiesterase (cGMP-PDE) (Bos taurus, UniProt Q28156); test: Inhibition of cGMP phosphodiesterase in vitro; format: biochemical, bovine; details: 1 μM 3H-cGMP, pH 7.5, 25 min, room temperature
T1 construct: is a homogeneous enzyme obtained from bovine lung; from tissue; host or cells: bovine lung

[3] = Compound toxicity assay: inhibition of HeLa cell translation (3H-leucine incorporation); format: cell-based; details: human; Table II; HeLa cells; read-out: Cytotoxicity 3H-LEU assay IC50
Description: as §1
HeLa cells were treated with inhibitory compound for 24 hours, after which levels of translational activity were assayed.
For assay of translational activity, HeLa cultures were grown to 80% confluency in 96 well microtiter plates, treated with appropriate concentrations of compound in 2% EMEM during an overnight incubation at 37° C., then rinsed with HBSS and overlaid with […] of 2% EMEM containing 8 uCi of tritiated leucine (^3 H-LEU, […], Amersham Corp., Arlington Heights, Ill.). After a 1 hour incubation at 36.5°C., the cells were rinsed twice with phosphate buffered saline (PBS) and lysed in 400 ul/well of 1×PBS, 0.5% sodium dodecyl sulphate (SDS). After a 10 min incubation at 36.5° C., the contents of the well were transferred to a well in a Millititer HA microfiltration plate (Millipore Corp., Bedford, Mass.). The TCA insoluble proteins were precipitated onto the filter disc by a 10 min fixation with 5% TCA, followed by filtration under vacuum and three 10 minute rinses with 95% ethanol. The filters were dried at room temperature, cut from the milltitier plate and transferred to scintillation vials. TCA precipitable counts were assayed in 5 ml of Scintisol (Isolab, Akron, Ohio). The inhibitory activity of a compound was plotted versus the concentration and an IC50 value (that concentration of the compound required to decrease cellular translational activity by 50%) was derived for each compound.

HeLa cells = test: as above; format: cell-based; details: Homo sapiens, Table II^1, read-out: Cytoxicity 3H-LEU assay IC50
herpes virus = details: added to lidocaine or lidocaine hydrochloride; cited from earlier work
HSV-1 = details: cited from earlier work
HSV-2 = details: cited from earlier work
[4] = Human alphaherpesvirus 2, Table II^1, HeLa cells, HSV-2 strain MS, read-out: Anti-HSV activity HSV-β-Gal assay IC50

IC50 (HSV-2 (strain MS); Human alphaherpesvirus 2, Table II, HeLa cells, HSV-2 strain MS, read-out: Anti-HSV activity, HSV-β-GAL assay IC50): < 3 µg/mL | IC50 ([2]; Table VI): 6 µM
Compound: CCCCCCn1c(=O)c(CO)c(OC)c2cc(C)ccc21 [Compound 9, 1-Hexyl-3-Hydroxymethyl-4-Methoxy-6-Methyl-2(1H)-Quinolinone]
Neurological dysfunction (percentage animals developing loss of bladder/hindlimb control) (HSV-2, strain MS): 44% | MSL (Maximum Lesion score) (HSV-2, strain MS): 1.44 | CC50 at 24 h [3]: 25 µg/mL (≈ 82.4 µM)

IC50 ([2]; Table VI): 4 µM
Compound: CCOC(=O)c1c(OCCN(C)C)c2cc(C)ccc2n(Cc2ccccc2)c1=O [Compound 27]
MBP (fall in mean blood pressure) ([1]; 25 mpk p.o.): 19 mm of Hg | MBP (fall in mean blood pressure) ([1]; 50 mpk p.o.): 24 mm of Hg | MBP (fall in mean blood pressure) ([1]; 100 mpk p.o.): 59 mm of Hg

IC50 ([2]; Table VI): 3 µM
Compound: CCCCCCn1c(=O)c(C(=O)OCC)c(OC)c2cc(C)ccc21 [Compound 28, 1-hexyl-3-ethoxycarbonyl-4-methoxy-6-methyl-2(1H)-quinolinone]

IC50 (HSV-2 (strain MS); [4]): 9.8 µg/mL (≈ 32.9 µM)
Compound: Cc1c(OC(=O)c2cccn2C)ccc2c(N)cc(=O)oc12 [Compound 69, 4-Amino-7-(N-Methyl-Pyrrol-2-Carbonyloxy)-8-Methyl-Benzopyran-2-one]
IC50 (HeLa cells): 100 µg/mL (≈ 335 µM)

IC50 (HSV-2 (strain MS); [4]): 15.5 µg/mL (≈ 54.5 µM)
Compound: Cc1c(OC(=O)c2ccc[nH]2)ccc2c(N)cc(=O)oc12 [Compound 70, 4-Amino-7-(Pyrrol-2-carbonyloxy)-8-Methyl-Benzopyran-2-one]
IC50 (HeLa cells): 74 µg/mL (≈ 260 µM)

More lines, now with the values behind:

Compound: Nc1nc2c(ncn2COCCO)c(=O)[nH]1 [Acyclovir, 9-[(2-hydroxyethoxy)methyl]guanine, reference compound]
Neurological dysfunction (percentage animals developing loss of bladder/hindlimb control) (HSV-2, strain MS): 44% | MSL (Maximum Lesion score) (HSV-2, strain MS): 1.61

Compound: CCOC(=O)c1c(OC)c2cc(C)ccc2n(Cc2ccccc2)c1=O [Compound 7, 1-benzyl-3-ethoxycarbonyl-4-methoxy-6-methyl-2(1H)-quinolinone]
MBP (fall in mean blood pressure) ([1]; Table VII, at 25 mpk (P.O.)): 0 mm Hg | IC50 (HSV-2 (strain MS); Human alphaherpesvirus 2, HeLa, read-out: Anti-HSV activity, HSV-β-GAL assay IC50): 3 µg/mL (≈ 8.54 µM) | IC50 ([2]; Table VII): 8 µM | CC50 at 24 h [3]: 37 µg/mL (≈ 105 µM)

Compound: CC(C)(CO)[C@@H](O)C(=O)NCCCO [dexpanthenol]
enhancement of antiviral activity of lidocaine or lidocaine hydrochloride (herpes virus): significantly enhances

Compound: CCN(CC)CC(=O)Nc1c(C)cccc1C [lidocaine, 2-(diethylamino)-N-(2,6-dimethylphenyl)acetamide]
antiviral activity in cell culture (HSV-1): antiviral agent | antiviral activity in cell culture (HSV-2): antiviral agent

Compound: CC(C)(CO)[C@@H](O)C(=O)NCCC(=O)O [pantothenic acid]
enhancement of antiviral activity of lidocaine or lidocaine hydrochloride (herpes virus): significantly enhances

From patent publication US5942522A, “Antiviral compounds and antihypertensive compounds” (Schering Corporation, priority 1997, dated 1999)
